The structures appear in SMILES notation.

The assay has as its system Ba/F3 EGFR del19/T790M/C797S cells. Kind of assay: Ba/F3 EGFR del19/T790M/C797S cell growth inhibition test (CellTiter-Glo, 72 hours).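 Note: compounds tested in tenfold steps from 10 µM down to 0.1 nM, with luminescence read on a microplate reader.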 The conditions noted are these: Ba/F3 cell line overexpressing EGFR del19/T790M/C797S, 72 hours, CellTiter-Glo; read-out: Ba/F3 EGFR del19/T790M/C797S cells, GI50. The assay is classed as cell-based. In general terms: Cellular ATP, detected with luciferase, serves as a proxy for viable cell number.
Experimental: Specifically, the cell line stored in a liquid nitrogen tank was taken out, rapidly dissolved at 37° C., and thereafter centrifuged to remove the cryopreservation medium. The recovered cell pellets were well mixed in a culture medium, put into a culture flask, and passaged under conditions of 37° C. and 5% carbon dioxide to stabilize the cells to the logarithmic growth phase. Thereafter, cells were taken from the flask, centrifuged to remove the culture medium, washed with Dulbecco's phosphate buffered saline (DPBS), and then centrifuged again to remove DPBS, and then diluted with a culture medium to have 1×10^5 cells/ml. The diluted cells were dispensed into a 96-well plate at 100 μl per well. […] The DMSO solution containing each compound was diluted with a culture medium to a concentration of 30 μM, and then tenfold serial dilution was used to prepare a solution diluted upto 0.3 nM (in order to reach a final DMSO concentration of 1% or less).
50 μl of a test solution of each compound was added each time to the 96-well plate in which the cells were dispensed, thus reaching a final concentration of 10 μM to 0.1 nM in 150 μl per well. The cells treated with the test solution were cultured under conditions of 37° C. and 5% carbon dioxide for 72 hours. After the 96-well plate in which the cells were cultured was acclimated to room temperature for 30 minutes, CellTiter-Glo® Luminescent Cell Assay Reagent (CTG, Promega) was dispensed at 50 μl per well. After stabilizing luminescence signals for 10 minutes, the luminescence intensity was measured with a microplate reader.
The GI50 value of each compound was calculated using nonlinear regression of GraphPad Prism; log[inhibitor] vs. normalized response analysis.
Regarding `CN1CCN(c2ccc(Nc3nc(Nc4ccccc4N(C)S(C)(=O)=O)c4cc[nH]c4n3)cc2)CC1` [Example 1, N-methyl-N-(2-((2-((4-(4-methylpiperazin-1-yl)phenyl)amino)-7H-pyrrolo[2,3-d]pyrimidine-4-yl)amino)phenyl)methanesulfonamide], the GI50 came out at 3.1 nM. As to `Cc1cc(N2CCN(C)CC2)ccc1Nc1nc(Nc2ccccc2N(C)S(C)(=O)=O)c2cc[nH]c2n1` [Example 2, N-methyl-N-(2-((2-((2-methyl-4-(4-methylpiperazin-1-yl)phenyl)amino)-7H-pyrrolo[2,3-d]pyrimidine-4-yl)amino)phenyl)methanesulfonamide], the GI50 is 522 nM. To `CN1CCN(c2ccc(Nc3nc(Nc4ccccc4N(C)S(C)(=O)=O)c4cc[nH]c4n3)c(F)c2)CC1` [Example 3, N-(2-((2-((2-fluoro-4-(4-methylpiperazin-1-yl)phenyl)amino)-7H-pyrrolo[2,3-d]pyrimidine-4-yl)amino)phenyl)-N-methylmethanesulfonamide] belongs 157 nM.

For `CN1CCN(c2ccc(Nc3nc(Nc4ccccc4N(C)S(C)(=O)=O)c4cc[nH]c4n3)cc2O)CC1` [Example 4, N-(2-((2-((3-hydroxy-4-(4-methylpiperazin-1-yl)phenyl)amino)-7H-pyrrolo[2,3-d]pyrimidine-4-yl)amino)phenyl)-N-methylmethanesulfonamide], the GI50 came out at 453 nM. For the molecule `Cc1cc(Nc2nc(Nc3ccccc3N(C)S(C)(=O)=O)c3cc[nH]c3n2)ccc1N1CCN(C)CC1` [Example 5, N-methyl-N-(2-((2-((3-methyl-4-(4-methylpiperazin-1-yl)phenyl)amino)-7H-pyrrolo[2,3-d]pyrimidine-4-yl)amino)phenyl)methanesulfonamide], the GI50 is 31 nM. Regarding `CN1CCN(c2ccc(Nc3nc(Nc4ccccc4N(C)S(C)(=O)=O)c4cc[nH]c4n3)cc2Cl)CC1` [Example 6, N-(2-((2-((3-chloro-4-(4-methylpiperazin-1-yl)phenyl)amino)-7H-pyrrolo[2,3-d]pyrimidine-4-yl)amino)phenyl)-N-methylmethanesulfonamide], the GI50 came out at 54 nM. To `CN1CCN(c2ccc(Nc3nc(Nc4ccccc4N(C)S(C)(=O)=O)c4cc[nH]c4n3)cc2F)CC1` [Example 7, N-(2-((2-((3-fluoro-4-(4-methylpiperazin-1-yl)phenyl)amino)-7H-pyrrolo[2,3-d]pyrimidine-4-yl)amino)phenyl)-N-methylmethanesulfonamide] belongs 19 nM.

For `CN(c1ccccc1Nc1nc(Nc2ccc(N3CCOCC3)c(F)c2)nc2[nH]ccc12)S(C)(=O)=O` [Example 12, N-(2-((2-((3-fluoro-4-morpholinophenyl)amino)-7H-pyrrolo[2,3-d]pyrimidine-4-yl)amino)phenyl)-N-methylmethanesulfonamide], the GI50 was found to be 4.2 nM. As to `CN(c1ccccc1Nc1nc(Nc2ccc(N3CCC(N4CCOCC4)CC3)c(F)c2)nc2[nH]ccc12)S(C)(=O)=O` [Example 18, N-(2-((2-((3-fluoro-4-(4-morpholinopiperidin-1-yl)phenyl)amino)-7H-pyrrolo[2,3-d]pyrimidine-4-yl)amino)phenyl)-N-methylmethanesulfonamide], the GI50 was 73 nM. Turning to `CN(c1ccccc1Nc1nc(Nc2ccc(N3CCN(C4COC4)CC3)c(F)c2)nc2[nH]ccc12)S(C)(=O)=O` [Example 19], the GI50 stood at 112 nM. `CN1CCC(c2ccc(Nc3nc(Nc4ccccc4N(C)S(C)(=O)=O)c4cc[nH]c4n3)cc2F)CC1` [Example 20, N-(2-((2-((3-fluoro-4-(1-methylpiperidin-4-yl)phenyl)amino)-7H-pyrrolo[2,3-d]pyrimidine-4-yl)amino)phenyl)-N-methylmethanesulfonamide]: the GI50 was 37 nM.

Take `CN(C)C1CCN(c2ccc(Nc3nc(Nc4ccccc4N(C)S(C)(=O)=O)c4cc[nH]c4n3)cc2F)CC1` [Example 21, N-(2-((2-((4-(4-(dimethylamino)piperidin-1-yl)-3-fluorophenyl)amino)-7H-pyrrolo[2,3-d]pyrimidine-4-yl)amino)phenyl)-N-methylmethanesulfonamide]: the GI50 stood at 17 nM.

The record behind these values is patent US12319695B2, “Sulfonamide derivative with fused pyrimidine skeleton, having epidermal growth factor receptor mutation inhibitory effect” (HANMI PHARM. CO., LTD., priority 2018, dated 2025).
